Measured values from US11492325B2, “Compounds as inhibitors of sodium channels” (Human BioMolecular Research Institute, priority 2016, dated 2022).
Like-named read-outs stand apart in the source and are kept apart here. Blank lines part the entries; values can stand above or below the molecule they belong to.

Columns and labels:
[1] = tested on: normal human induced pluripotent stem cell (hiPSC) cardiomyocyte; conditions: for WT-Cessation Dose (μM): WT cardiomyocytes, cessation of beating
[2] = tested on: cardiomyocytes derived from hiPSCs from a LQTS3 patient; conditions: LQT-3 cardiomyocytes; for LQT-EC50 (μM) Shortening: AP shortening
[3] = tested on: normal human induced pluripotent stem cell (hiPSC) cardiomyocyte; assay: cells; conditions: read-out: WT-EC50 (μM) Prolongation
[4] = Chemical stability in PBS buffer at pH 7.4 or 3.0, 37° C.; type: physicochemical; conditions: 1% Ethanol
Protocol: A typical incubation contained 100 μM of the test compound prepared in PBS buffer (pH 7.4 or 3.0, 50 mM) with 1% Ethanol. The test compounds were incubated at 37° C. An aliquot from incubations was taken at various times and injected onto an RP-HPLC system as described above. Disappearance of the analyte was monitored over time.

[5] = tested on: cardiomyocytes derived from hiPSCs from a LQTS3 patient; assay: cells; conditions: Homo sapiens, Cardiomyocyte, read-out: LQT-EC50 (μM) Shortening, pyridyl derivatives
[6] = Metabolic stability in human liver microsomes; type: in vitro ADME; conditions: human, microsomes
Protocol: (§1) A typical incubation contained rat, mouse, dog or human liver microsomes (0.4-0.5 mg of protein), 100 mM potassium phosphate buffer (pH7.4), 50 μM test compound, an NADPH-generating system consisting of 0.5 mM NADP^+, 0.5 mM glucose-6-phosphate, 1 IU/mL glucose-6-phosphate dehydrogenase, 1 mg/mL diethylenetriaminepentaaceticacid (DETAPAC), and 3 mM MgCl2 in a final incubation volume of 0.25 mL. […] After centrifugation at 3000 rpm for 5 min, the organic fraction was collected, the solvent was removed with a stream of argon and the residue was reconstituted in 125 μL of MeOH and 125 μL H2O, mixed thoroughly, centrifuged at 13,000 rpm for 5 min and analyzed by high performance liquid chromatography. Samples were run on a Hitachi D-7000 HPLC system using a L-7100 analytical pump, L-7400 UV-Visible variable wavelength detector, and L-7600 automatic sample injector. […] Disappearance of the analyte was monitored over time. A plot of the area under the curve for the normalized analyte versus time afforded the half-life values and kapp.

[7] = Metabolism in human hepatic S9; conditions: human, s9
Protocol: as §1
Microsomes contain CYPs and FMO metabolic enzymes. S9 contains soluble enzymes (i.e., aldehyde oxidase, MAO, etc.).

Male BALBc mice = conditions: mice, 100 mg/kg; for behavioral effects at 100 mg/kg: enantiomers
Text: Male BALBc mice (20-22 g) were used throughout these studies. The animals were maintained in a temperature-controlled room with 12-hr periods of light and darkness and had continuous access to water and animal food. […] Groups contained 2-4 animals.

[8] = pH 3, 100 μM in PBS, read-out: Half-Life @ pH 3.0 and 37° C.
[9] = pH 7.4, 100 μM in PBS, read-out: Half-Life @ pH 7.4 and 37° C.

Structure (SMILES): Cc1ccncc1OCC(N)c1ccccc1 (centres unmarked) [Compound 112]
WT-Cessation Dose (μM) [1]: No cessation of beating
LQT-Fold Shortening [2]: Does Not Shorten
LQT-Shortening Dose (μM) [2]: Does Not Shorten
LQT-EC50 (μM) Shortening [2]: Does Not Shorten
EC50 [3]: 19.4 µM

Structure (SMILES): NC(COc1cc(C(F)(F)F)cc(C(F)(F)F)c1)c1ccccc1 (centres unmarked) [drawing 310]
half-life at 100 μM [4, 8]: > 30 days
half-life at 100 μM [4, 9]: 30 days

Structure (SMILES): Cc1cncc(OCC(N)c2ccccc2)c1 (centres unmarked) [Compound 113]
LQT-Fold Shortening [2]: Does Not Shorten
LQT-Shortening Dose (μM) [2]: Does Not Shorten
LQT-EC50 (μM) Shortening [2]: Does Not Shorten
EC50 [3]: 7.24 µM

half-life at 100 μM [4, 8]: > 15 days
Structure (SMILES): Cc1ccccc1OCC(N)c1ccccc1 (centres unmarked) [drawing 311]

Structure (SMILES): Cc1cc(C)cc(OCC(N)c2ccccc2)c1 (centres unmarked) [drawing 309]
half-life at 100 μM [4, 8]: > 30 days
half-life at 100 μM [4, 9]: > 30 days

Cessation of Beating ([1]; normal hiPSC cardiomyocytes): None
WT-EAD Dose ([1]; normal hiPSC cardiomyocytes): 133 µM
WT-Cessation Dose ([1]; pyridyl derivatives): No cessation of beatimg
Structure (SMILES): Cc1cccnc1OCC(N)c1ccccc1 (centres unmarked) [Compound 94, 2-((3-methylpyridin-2-yl)oxy)-1-phenylethan-1-amine]
EC50 [3]: 18.5 µM
EC50 [5]: 12.8 µM

Structure (SMILES): Cc1ccnc(C)c1OCC(N)c1ccccc1 (centres unmarked) [Compound 118]
WT-Cessation Dose (μM) [1]: No cessation of beating
LQT-Fold Shortening [2]: Does Not Shorten
LQT-Shortening Dose (μM) [2]: Does Not Shorten
LQT-EC50 (μM) Shortening [2]: Does Not Shorten
EC50 [3]: 8.22 µM

Structure (SMILES): Cl.NC(COc1cc(C(F)(F)F)cc(C(F)(F)F)c1)c1ccccc1 (stereo in doubt) [(S)-78]
Liver Microsomes, remaining after 1 hr ([6]; 1 h): >95% after 1 hr
Liver S-9 T1/2 [7]: 0.7222 days
Behavior Effect (S)-enantiomer (Male BALBc mice): 2/4 shaking
behavioral effects at 100 mg/kg (Male BALBc mice): Minor lethargy

Structure (SMILES): Cc1cc(C)cc(OCC(N)c2ccccc2)c1.Cl (stereo in doubt) [(R)-70]
Liver Microsomes T1/2 [6]: 0.282 days
Liver S-9 T1/2 [7]: 0.7049 days
Behavior Effect (R)-enantiomer (Male BALBc mice): No detectable effect
behavioral effects at 100 mg/kg (Male BALBc mice): no apparent behavioral effects
